From ChEMBL document CHEMBL2203055, “From α4β2 Nicotinic Ligands to the Discovery of σ1 Receptor Ligands: Pharmacophore Analysis and Rational Design” (ACS Med Chem Lett, 2012)
pKi: −log10 of the molar value.

What was measured:
[1] = target: Neuronal acetylcholine receptor; alpha4/beta2 (Rattus norvegicus) (UniProt P09483+P12390); assay: Displacement of [3H]epibatidine from alpha4beta2* nAChR in rat forebrain at 10 uM after 4 hrs by liquid scintillation counting analysis
[2] = target: Alpha-1A adrenergic receptor (Homo sapiens) (UniProt P35348); assay: Displacement of [3H]prazosin from alpha 1A adrenergic receptor at 10 uM after 1 hr by microbeta scintillation counting analysis
[3] = target: Histamine H1 receptor (Homo sapiens, UniProt P35367); assay: Displacement of [3H]pyrilamine from human recombinant histamine H1 receptor after 1.5 hrs by microbeta scintillation counting analysis
[4] = Displacement of [3H]DTG from sigma 2 receptor in rat PC12 cell membrane after 2 hrs by microbeta scintillation counting analysis; assay type: cell membranes; conditions: pc-12
[5] = target: Sigma non-opioid intracellular receptor 1 (Rattus norvegicus, UniProt Q9R0C9); assay: Displacement of [3H]pentazocine from sigma 1 receptor in rat brain membrane after 2.5 hrs by microbeta scintillation counting analysis; assay type: cell membranes
[6] = target: Neuronal acetylcholine receptor; alpha4/beta2 (Homo sapiens) (UniProt P17787+P43681); assay: Displacement of [3H]epibatidine from alpha4beta2 nAChR at 10 uM after 4 hrs by liquid scintillation counting analysis; assay type: protein-complex assay
[7] = target: Alpha-2A adrenergic receptor (Homo sapiens) (UniProt P08913); assay: Displacement of […] from alpha 2A adrenergic receptor at 10 uM after 40 mins by microbeta scintillation counting analysis
[8] = target: 5-hydroxytryptamine receptor 2C (Homo sapiens) (UniProt P28335); assay: Displacement of [3H]mesulergine from human recombinant 5-HT2C receptor at 10 uM after 1.5 hrs by microbeta scintillation counting analysis
[9] = Selectivity ratio of Ki for human recombinant NET to Ki for sigma 1 receptor in rat brain membrane; assay type: cell membranes
[10] = target: 5-hydroxytryptamine receptor 2B (Homo sapiens, UniProt P41595); assay: Displacement of [3H]LSD from human recombinant 5-HT2B receptor after 1.5 hrs by microbeta scintillation counting analysis
[11] = target: Neuronal acetylcholine receptor; alpha2/beta2 (Homo sapiens) (UniProt P17787+Q15822); assay: Displacement of [3H]epibatidine from alpha2beta2 nAChR at 10 uM after 4 hrs by liquid scintillation counting analysis; assay type: protein-complex assay
[12] = target: Neuronal acetylcholine receptor; alpha3/beta4 (Homo sapiens) (UniProt P30926+P32297); assay: Displacement of [3H]epibatidine from alpha3beta4 nAChR at 10 uM after 4 hrs by liquid scintillation counting analysis; assay type: protein-complex assay
[13] = target: D(1A) dopamine receptor (Homo sapiens) (UniProt P21728); assay: Displacement of [3H]SCH23390 from human recombinant D1 receptor at 10 uM after 1.5 hrs by microbeta scintillation counting analysis
[14] = target: Alpha-1B adrenergic receptor (Homo sapiens) (UniProt P35368); assay: Displacement of [3H]prazosin from alpha 1B adrenergic receptor at 10 uM after 1 hr by microbeta scintillation counting analysis
[15] = target: Delta-type opioid receptor (Homo sapiens) (UniProt P41143); assay: Displacement of [3H]DADLE from human recombinant delta-opioid receptor at 10 uM after 1.5 hrs by microbeta scintillation counting analysis
[16] = Selectivity ratio of Ki for human recombinant DAT to Ki for sigma 1 receptor in rat brain membrane; assay type: cell membranes
[17] = target: Neuronal acetylcholine receptor; alpha4/beta4 (Homo sapiens) (UniProt P30926+P43681); assay: Displacement of [3H]epibatidine from alpha4beta4 nAChR at 10 uM after 4 hrs by liquid scintillation counting analysis; assay type: protein-complex assay
[18] = target: Alpha-1D adrenergic receptor (Homo sapiens) (UniProt P25100); assay: Inhibitory activity against alpha 1D adrenergic receptor at 10 uM
[19] = target: T1, Histamine H2 receptor (Homo sapiens, UniProt P25021); assay: Displacement of [3H]tiotidine from human recombinant histamine H2 receptor after 1.5 hrs by microbeta scintillation counting analysis
[20] = target: Neuronal acetylcholine receptor; alpha3/beta2 (Homo sapiens) (UniProt P17787+P32297); assay: Displacement of [3H]epibatidine from alpha3beta2 nAChR at 10 uM after 4 hrs by liquid scintillation counting analysis; assay type: protein-complex assay
[21] = target: Muscarinic acetylcholine receptor M2 (Homo sapiens) (UniProt P08172); assay: Displacement of [3H]QNB from human recombinant muscarinic M2 receptor at 10 uM after 1.5 hrs by microbeta scintillation counting analysis
[22] = target: 5-hydroxytryptamine receptor 1B (Homo sapiens) (UniProt P28222); assay: Displacement of [3H]GR125743 from human recombinant 5-HT1B receptor at 10 uM after 1.5 hrs by microbeta scintillation counting analysis
[23] = target: Sodium-dependent noradrenaline transporter (Homo sapiens, UniProt P23975); assay: Displacement of [3H]nisoxetine from human recombinant NET at 10 uM after 1.5 hrs by microbeta scintillation counting analysis
[24] = target: Neuronal acetylcholine receptor; alpha2/beta4 (Homo sapiens) (UniProt P30926+Q15822); assay: Displacement of [3H]epibatidine from alpha2beta4 nAChR at 10 uM after 4 hrs by liquid scintillation counting analysis; assay type: protein-complex assay
[25] = target: 5-hydroxytryptamine receptor 5A (Homo sapiens) (UniProt P47898); assay: Displacement of [3H]LSD from human recombinant 5-HT5A receptor at 10 uM after 1.5 hrs by microbeta scintillation counting analysis
[26] = target: T1, Histamine H2 receptor; assay: Displacement of [3H]tiotidine from human recombinant histamine H2 receptor at 10 uM after 1.5 hrs by microbeta scintillation counting analysis
[27] = target: Beta-2 adrenergic receptor (Homo sapiens, UniProt P07550); assay: Displacement of [125I]Iodopindolol from beta 2 adrenergic receptor after 1.5 hrs by microbeta scintillation counting analysis
[28] = target: 5-hydroxytryptamine receptor 6 (Homo sapiens, UniProt P50406); assay: Displacement of [3H]LSD from human recombinant 5-HT6 receptor after 1.5 hrs by microbeta scintillation counting analysis

T1 sequence (P25021 whole entry): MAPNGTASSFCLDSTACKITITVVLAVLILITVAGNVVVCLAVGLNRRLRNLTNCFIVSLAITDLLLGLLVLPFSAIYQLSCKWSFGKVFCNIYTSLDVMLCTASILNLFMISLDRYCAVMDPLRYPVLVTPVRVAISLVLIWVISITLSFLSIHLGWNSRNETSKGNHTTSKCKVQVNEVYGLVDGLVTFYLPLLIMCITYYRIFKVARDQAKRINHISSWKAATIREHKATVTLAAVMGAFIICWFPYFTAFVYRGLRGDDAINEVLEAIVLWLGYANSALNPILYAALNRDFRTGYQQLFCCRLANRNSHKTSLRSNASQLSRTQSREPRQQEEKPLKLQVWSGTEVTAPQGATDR
Sigma non-opioid intracellular receptor 1, sequence (Q9R0C9 whole entry): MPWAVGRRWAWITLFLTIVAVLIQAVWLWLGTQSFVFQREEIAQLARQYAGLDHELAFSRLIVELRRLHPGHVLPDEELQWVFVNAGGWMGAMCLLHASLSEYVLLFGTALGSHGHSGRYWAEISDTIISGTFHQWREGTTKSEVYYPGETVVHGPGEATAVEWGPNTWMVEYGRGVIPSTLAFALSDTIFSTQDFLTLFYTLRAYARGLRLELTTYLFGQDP
Delta-type opioid receptor (Homo sapiens), sequence (P41143 whole entry): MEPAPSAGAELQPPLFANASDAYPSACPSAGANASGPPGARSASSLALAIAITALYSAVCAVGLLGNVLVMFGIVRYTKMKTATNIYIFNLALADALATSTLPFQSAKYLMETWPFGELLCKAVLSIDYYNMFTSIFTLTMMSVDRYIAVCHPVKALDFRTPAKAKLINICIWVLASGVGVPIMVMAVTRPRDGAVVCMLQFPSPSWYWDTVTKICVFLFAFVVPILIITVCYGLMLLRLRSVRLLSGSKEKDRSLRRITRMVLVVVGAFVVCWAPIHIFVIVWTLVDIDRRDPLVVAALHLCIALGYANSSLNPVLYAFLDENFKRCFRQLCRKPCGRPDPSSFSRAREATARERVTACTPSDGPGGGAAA
5-hydroxytryptamine receptor 1B (Homo sapiens), sequence (P28222 whole entry): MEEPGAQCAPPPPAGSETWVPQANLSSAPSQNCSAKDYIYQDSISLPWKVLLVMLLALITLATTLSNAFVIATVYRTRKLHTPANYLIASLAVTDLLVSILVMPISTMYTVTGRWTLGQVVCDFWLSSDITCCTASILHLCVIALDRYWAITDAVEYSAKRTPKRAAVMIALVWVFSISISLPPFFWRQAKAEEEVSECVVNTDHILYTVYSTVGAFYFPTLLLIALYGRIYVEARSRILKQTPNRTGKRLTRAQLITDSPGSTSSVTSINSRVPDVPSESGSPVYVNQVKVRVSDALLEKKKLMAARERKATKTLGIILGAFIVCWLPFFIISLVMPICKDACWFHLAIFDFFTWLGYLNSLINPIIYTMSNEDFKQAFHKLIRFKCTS
5-hydroxytryptamine receptor 5A (Homo sapiens), sequence (P47898 whole entry): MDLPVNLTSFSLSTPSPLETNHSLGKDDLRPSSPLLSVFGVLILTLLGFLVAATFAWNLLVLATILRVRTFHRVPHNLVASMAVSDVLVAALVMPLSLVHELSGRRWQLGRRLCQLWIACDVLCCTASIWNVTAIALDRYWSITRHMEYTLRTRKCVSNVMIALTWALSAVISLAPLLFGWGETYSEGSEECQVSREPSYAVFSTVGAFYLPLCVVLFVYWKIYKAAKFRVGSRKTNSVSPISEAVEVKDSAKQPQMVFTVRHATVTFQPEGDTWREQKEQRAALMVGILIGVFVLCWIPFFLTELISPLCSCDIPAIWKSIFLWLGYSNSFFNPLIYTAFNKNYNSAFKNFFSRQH
Alpha-1B adrenergic receptor (Homo sapiens), sequence (P35368 whole entry): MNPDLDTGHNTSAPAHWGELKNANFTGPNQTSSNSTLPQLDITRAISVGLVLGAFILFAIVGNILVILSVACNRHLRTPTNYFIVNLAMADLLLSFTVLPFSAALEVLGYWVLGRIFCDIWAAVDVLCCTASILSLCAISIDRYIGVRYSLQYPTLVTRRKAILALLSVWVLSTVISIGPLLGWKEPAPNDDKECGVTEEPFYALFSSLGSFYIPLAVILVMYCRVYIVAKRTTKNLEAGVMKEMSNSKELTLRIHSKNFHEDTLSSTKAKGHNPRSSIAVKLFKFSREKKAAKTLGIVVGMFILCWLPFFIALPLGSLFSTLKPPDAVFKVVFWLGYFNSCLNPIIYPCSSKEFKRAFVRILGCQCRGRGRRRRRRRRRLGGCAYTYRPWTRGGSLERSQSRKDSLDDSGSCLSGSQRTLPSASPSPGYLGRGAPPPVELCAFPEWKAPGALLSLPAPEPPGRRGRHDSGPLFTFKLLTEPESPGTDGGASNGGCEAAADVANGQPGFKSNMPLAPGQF
5-hydroxytryptamine receptor 2C (Homo sapiens), sequence (P28335 whole entry): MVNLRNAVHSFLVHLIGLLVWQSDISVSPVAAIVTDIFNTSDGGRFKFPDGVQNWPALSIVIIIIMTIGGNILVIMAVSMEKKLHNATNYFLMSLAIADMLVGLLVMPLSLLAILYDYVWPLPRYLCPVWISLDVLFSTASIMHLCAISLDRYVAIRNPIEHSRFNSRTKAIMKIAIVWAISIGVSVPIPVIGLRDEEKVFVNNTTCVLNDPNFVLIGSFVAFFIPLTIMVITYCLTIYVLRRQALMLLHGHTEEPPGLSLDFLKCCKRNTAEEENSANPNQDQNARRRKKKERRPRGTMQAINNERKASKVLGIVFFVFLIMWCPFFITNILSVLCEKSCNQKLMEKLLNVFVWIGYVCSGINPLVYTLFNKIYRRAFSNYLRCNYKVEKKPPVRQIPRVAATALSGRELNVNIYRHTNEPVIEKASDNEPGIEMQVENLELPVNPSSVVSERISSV
Alpha-1A adrenergic receptor (Homo sapiens), sequence (P35348 whole entry): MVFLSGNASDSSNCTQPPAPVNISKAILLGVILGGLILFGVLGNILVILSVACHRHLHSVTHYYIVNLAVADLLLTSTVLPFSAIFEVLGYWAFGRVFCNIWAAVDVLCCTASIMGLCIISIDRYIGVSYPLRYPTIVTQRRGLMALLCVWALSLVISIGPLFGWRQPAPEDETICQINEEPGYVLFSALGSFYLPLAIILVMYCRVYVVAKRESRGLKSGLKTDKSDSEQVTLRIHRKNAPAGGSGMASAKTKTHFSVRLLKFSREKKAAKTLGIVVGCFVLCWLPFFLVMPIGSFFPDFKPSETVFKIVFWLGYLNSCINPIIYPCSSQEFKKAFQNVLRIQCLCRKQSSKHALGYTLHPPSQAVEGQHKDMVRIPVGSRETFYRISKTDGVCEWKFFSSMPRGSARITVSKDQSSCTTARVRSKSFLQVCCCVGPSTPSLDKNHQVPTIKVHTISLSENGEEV
Alpha-2A adrenergic receptor (Homo sapiens), sequence (P08913 whole entry): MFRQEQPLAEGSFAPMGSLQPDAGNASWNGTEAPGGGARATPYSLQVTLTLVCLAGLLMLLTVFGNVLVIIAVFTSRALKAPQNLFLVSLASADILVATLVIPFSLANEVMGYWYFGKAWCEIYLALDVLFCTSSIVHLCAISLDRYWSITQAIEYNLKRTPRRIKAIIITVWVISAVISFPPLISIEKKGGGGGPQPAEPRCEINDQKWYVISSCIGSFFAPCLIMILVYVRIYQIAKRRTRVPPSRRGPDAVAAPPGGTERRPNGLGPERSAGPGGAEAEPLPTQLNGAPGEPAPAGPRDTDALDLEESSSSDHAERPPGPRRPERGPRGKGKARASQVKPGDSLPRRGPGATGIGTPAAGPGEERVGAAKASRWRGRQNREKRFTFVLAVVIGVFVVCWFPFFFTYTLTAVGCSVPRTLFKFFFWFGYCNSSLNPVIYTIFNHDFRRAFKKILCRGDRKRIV
D(1A) dopamine receptor (Homo sapiens), sequence (P21728 whole entry): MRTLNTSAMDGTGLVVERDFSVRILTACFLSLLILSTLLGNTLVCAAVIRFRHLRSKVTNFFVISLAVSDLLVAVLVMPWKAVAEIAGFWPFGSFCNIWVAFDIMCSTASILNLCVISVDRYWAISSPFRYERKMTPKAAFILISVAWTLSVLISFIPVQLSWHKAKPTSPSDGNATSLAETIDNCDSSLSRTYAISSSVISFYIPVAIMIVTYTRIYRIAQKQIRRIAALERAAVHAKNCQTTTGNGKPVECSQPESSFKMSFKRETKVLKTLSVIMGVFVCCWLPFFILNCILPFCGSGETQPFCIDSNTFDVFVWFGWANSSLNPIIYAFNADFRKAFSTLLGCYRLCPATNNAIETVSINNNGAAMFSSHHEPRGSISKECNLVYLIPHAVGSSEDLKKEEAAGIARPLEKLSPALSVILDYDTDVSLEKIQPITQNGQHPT
Muscarinic acetylcholine receptor M2 (Homo sapiens), sequence (P08172 whole entry): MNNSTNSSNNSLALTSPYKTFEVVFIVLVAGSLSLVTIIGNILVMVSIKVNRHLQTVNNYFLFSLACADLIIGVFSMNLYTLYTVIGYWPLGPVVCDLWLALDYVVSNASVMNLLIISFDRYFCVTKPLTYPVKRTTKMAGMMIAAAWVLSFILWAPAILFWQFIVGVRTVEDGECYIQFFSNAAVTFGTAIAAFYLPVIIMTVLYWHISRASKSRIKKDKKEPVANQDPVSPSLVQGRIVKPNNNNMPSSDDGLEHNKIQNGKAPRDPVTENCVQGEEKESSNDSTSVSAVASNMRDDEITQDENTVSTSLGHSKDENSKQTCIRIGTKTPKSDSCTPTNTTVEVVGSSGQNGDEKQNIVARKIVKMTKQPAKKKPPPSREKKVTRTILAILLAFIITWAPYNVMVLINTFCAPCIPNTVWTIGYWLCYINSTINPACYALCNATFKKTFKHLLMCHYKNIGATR
Beta-2 adrenergic receptor, sequence (P07550 whole entry): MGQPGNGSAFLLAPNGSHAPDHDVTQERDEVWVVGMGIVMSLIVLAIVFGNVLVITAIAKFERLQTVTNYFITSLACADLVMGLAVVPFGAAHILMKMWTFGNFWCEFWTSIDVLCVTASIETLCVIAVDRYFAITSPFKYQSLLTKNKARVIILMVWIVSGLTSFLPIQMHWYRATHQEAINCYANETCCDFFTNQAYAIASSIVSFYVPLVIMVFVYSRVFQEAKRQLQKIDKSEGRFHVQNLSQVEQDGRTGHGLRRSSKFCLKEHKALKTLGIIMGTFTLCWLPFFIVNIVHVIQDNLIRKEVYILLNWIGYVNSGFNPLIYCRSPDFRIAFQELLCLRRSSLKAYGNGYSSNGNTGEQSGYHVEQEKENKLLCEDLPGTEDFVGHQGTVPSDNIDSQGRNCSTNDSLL

Row | Compound | Efficacy [2] | pKi [4] | pKi [5] | Efficacy [7] | Efficacy [8] | Efficacy [13] | Efficacy [14] | Efficacy [15] | Efficacy [18] | Efficacy [21] | Efficacy [22] | Efficacy [23] | Efficacy [25] | Efficacy [26] | other results
1 | c1ccc(OCc2cc(OC[C@@H]3CCCN3)no2)cc1 | 21% | 5.88 | 8.39 | 36.1% | 76.9% | -5.7% | 27.8% | 10.3% | 25.2% | 11.8% | -1.2% | 95.9% | 32.4% | 57.2% | Activity [1]: < 50%; pKi [3]: < 5.00; Activity [6]: < 50%; Ratio Ki [9]: 50; pKi [10]: 5.29; Activity [11]: < 50%; Activity [12]: < 50%; Ratio Ki [16]: 90; Activity [17]: < 50%; pKi [19]: 5.29; Activity [20]: < 50%; Activity [24]: < 50%; pKi [27]: < 5.00
2 | c1ccc(OCc2cc(OC[C@@H]3CCN3)no2)cc1 | 17.5% | 5.83 | 7.48 | 17.4% | 68.8% | 6.1% | 18.1% | 4.9% | 22.4% | 12.6% | 2.3% | 97.2% | 15.2% | 40.9% | pKi [28]: < 5.00
